Activity calls are given as the source filed them.
Tests used:
[1] = target: T1, Microphthalmia-associated transcription factor (Homo sapiens, UniProt O75030); assay: TRPM1 promoter luciferase signal decrease, dose response, MITF inhibitor project, cell-based, SK-MEL-5, cherry-picked, set 3 (AID 493073); format: functional
T1 sequence (O75030 whole entry): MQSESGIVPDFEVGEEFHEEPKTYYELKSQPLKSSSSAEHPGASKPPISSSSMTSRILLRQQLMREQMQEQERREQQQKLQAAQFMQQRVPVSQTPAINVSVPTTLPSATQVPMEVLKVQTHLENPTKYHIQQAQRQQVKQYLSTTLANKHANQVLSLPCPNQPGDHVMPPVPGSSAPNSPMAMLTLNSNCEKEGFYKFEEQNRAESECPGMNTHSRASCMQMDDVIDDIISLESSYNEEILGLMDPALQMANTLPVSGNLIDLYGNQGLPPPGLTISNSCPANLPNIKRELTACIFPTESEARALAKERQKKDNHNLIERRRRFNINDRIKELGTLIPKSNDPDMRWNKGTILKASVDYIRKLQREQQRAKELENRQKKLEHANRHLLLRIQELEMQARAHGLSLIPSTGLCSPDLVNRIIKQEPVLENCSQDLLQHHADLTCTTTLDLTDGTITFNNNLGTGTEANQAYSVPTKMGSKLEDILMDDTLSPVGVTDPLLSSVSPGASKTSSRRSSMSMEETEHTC

[2] = microbe, parasite or virus in culture; format: functional; settings: Mycobacterium tuberculosis
[3] = target: T2, Ubiquitin-conjugating enzyme E2 N (Homo sapiens, UniProt P61088); format: functional;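 also: Dose-response confirmation in a TR-FRET assay detecting UBC13-driven polyubiquitin chain formation, inhibition measured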
T2 sequence (P61088 whole entry): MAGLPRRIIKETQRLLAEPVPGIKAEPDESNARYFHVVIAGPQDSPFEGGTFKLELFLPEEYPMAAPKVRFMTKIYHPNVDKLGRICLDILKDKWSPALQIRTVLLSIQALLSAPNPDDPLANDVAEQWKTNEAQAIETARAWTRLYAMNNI

[4] = target: T3, Polyadenylate-binding protein 1 (Homo sapiens, UniProt P11940); assay: PABP1 MLLE–PAM2 interaction inhibitors, dose response, miRNA deadenylation inhibitor project, biochemical, fluorescence polarization, Cy5-PAM2 peptide, secondary (AID 602260); format: functional; settings: read-out: IC50_Mean
T3 sequence (P11940 whole entry): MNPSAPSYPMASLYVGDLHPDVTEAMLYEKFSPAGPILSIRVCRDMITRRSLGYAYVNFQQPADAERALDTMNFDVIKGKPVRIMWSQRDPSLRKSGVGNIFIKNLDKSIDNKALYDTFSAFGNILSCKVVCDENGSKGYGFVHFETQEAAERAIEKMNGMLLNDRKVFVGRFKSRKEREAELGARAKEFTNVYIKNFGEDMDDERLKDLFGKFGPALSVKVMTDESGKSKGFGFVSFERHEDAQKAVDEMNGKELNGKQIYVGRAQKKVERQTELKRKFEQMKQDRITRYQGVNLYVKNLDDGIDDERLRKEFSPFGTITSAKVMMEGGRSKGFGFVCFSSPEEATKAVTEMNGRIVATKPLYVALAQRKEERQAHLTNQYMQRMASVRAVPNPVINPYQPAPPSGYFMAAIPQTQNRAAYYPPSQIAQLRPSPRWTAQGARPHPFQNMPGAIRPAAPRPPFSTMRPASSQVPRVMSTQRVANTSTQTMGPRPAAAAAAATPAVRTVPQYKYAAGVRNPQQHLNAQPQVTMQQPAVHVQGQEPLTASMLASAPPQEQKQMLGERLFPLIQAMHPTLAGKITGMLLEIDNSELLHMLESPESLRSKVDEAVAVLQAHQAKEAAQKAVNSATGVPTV

[5] = target: T4, Streptokinase A (Streptococcus pyogenes serotype M1, UniProt P10520); assay: S. pyogenes streptokinase expression inhibitors, potency, dose response, plasminogen activation absorbance, OD405 (AID 1914); format: functional, Streptococcus pyogenes M1 GAS;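 also: secreted streptokinase activity via plasminogen activation per viability signal from cell pellet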
T4 sequence (P10520 whole entry): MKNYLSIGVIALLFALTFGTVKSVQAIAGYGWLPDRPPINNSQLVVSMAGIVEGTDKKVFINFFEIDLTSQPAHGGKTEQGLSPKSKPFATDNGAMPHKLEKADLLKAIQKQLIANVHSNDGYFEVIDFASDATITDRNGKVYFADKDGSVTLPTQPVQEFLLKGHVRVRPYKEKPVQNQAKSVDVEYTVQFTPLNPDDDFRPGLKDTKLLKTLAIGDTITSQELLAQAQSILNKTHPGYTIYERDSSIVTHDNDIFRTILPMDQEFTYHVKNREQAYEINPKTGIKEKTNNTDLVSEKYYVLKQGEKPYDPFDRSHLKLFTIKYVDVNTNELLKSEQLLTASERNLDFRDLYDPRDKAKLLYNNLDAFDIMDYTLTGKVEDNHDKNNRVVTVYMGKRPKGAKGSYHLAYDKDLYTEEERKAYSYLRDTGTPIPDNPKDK

[6] = target: T3, Polyadenylate-binding protein 1; assay: PABP1 MLLE–PAM2 binding inhibitor potency, dose response, biochemical, fluorescence polarization, FITC-PAM2 peptide (AID 602259); format: functional; settings: read-out: IC50_Mean
[7] = target: T5, High affinity choline transporter 1 (Homo sapiens, UniProt Q9GZV3); assay: CHT inhibitors, dose response, cell-based, 5-point CRC, membrane potential dye (AID 504840); format: functional
T5 sequence (Q9GZV3 whole entry): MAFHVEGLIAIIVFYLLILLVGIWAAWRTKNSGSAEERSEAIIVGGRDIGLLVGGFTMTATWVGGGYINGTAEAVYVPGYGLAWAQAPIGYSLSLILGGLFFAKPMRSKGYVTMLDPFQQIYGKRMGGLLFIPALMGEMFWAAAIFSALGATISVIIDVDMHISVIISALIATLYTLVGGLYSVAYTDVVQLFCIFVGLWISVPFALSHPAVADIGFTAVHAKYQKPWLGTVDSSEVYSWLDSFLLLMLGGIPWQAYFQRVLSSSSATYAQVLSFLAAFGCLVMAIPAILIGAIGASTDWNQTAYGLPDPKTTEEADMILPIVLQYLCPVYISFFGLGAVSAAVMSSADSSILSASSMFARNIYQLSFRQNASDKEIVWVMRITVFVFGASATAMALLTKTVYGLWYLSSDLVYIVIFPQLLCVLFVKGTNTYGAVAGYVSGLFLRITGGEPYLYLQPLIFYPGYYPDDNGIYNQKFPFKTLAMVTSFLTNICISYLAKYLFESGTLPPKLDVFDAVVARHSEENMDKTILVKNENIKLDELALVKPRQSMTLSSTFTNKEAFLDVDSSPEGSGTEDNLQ

[8] = target: T6, Protein skinhead-1 (Caenorhabditis elegans, UniProt P34707); format: functional
T6 sequence (P34707 whole entry): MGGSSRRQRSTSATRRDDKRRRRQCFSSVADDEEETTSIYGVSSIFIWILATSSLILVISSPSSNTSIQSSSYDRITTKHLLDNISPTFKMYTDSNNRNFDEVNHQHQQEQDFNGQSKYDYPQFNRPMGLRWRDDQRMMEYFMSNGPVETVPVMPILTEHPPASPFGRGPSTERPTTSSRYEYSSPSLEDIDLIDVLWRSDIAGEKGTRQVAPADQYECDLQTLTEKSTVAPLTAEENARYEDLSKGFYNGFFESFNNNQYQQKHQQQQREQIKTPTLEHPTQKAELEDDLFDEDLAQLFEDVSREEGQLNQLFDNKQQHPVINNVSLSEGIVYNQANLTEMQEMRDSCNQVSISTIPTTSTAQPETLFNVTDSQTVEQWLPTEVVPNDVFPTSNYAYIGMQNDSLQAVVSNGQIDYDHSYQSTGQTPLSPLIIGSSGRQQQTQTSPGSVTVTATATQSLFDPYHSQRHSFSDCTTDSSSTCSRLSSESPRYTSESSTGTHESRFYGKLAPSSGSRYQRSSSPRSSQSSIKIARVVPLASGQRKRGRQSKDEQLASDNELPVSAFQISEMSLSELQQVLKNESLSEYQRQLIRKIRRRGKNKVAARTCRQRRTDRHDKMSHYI

[9] = HepG2 cell cytotoxicity, dose response, cytotoxicity control for Shn3 inhibitor project, CellTiter-Glo, cherry-picked (AID 624134); format: functional, cell-based
[10] = Shn3 3'UTR reporter inhibitors, dose response, cell-based, Clone20 osteoblasts, firefly luciferase, cherry-picked (AID 624132); format: functional;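 also: firefly luciferase luminescence from reporter carrying the Shn3 3'UTR in osteoblasts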
[11] = control 3'UTR Renilla luciferase suppression, dose response, counter-screen for Shn3 inhibitor project, cell-based, Clone20-Shn3RL, cherry-picked (AID 624133); format: functional
[12] = cells; format: functional, cell-based
[13] = cells; format: functional, cell-based; remark: listed apart in the source
[14] = tested on: Streptococcus sp. 'group A'; assay: growth inhibition of control SK(-) GAS strain, dose response, counter-screen for streptokinase expression inhibitor project, luminescence, kanamycin, BacTiterGlo, confirmation (AID 1900); format: functional, organism-based
[15] = target: T7, Replicative DNA helicase DnaB (Mycobacterium tuberculosis, UniProt P9WMR3); assay: DnaB intein splicing inhibitors, dose response, biochemical, cell-free fluorescence (AID 449749); format: functional
T7 sequence (P9WMR3 whole entry): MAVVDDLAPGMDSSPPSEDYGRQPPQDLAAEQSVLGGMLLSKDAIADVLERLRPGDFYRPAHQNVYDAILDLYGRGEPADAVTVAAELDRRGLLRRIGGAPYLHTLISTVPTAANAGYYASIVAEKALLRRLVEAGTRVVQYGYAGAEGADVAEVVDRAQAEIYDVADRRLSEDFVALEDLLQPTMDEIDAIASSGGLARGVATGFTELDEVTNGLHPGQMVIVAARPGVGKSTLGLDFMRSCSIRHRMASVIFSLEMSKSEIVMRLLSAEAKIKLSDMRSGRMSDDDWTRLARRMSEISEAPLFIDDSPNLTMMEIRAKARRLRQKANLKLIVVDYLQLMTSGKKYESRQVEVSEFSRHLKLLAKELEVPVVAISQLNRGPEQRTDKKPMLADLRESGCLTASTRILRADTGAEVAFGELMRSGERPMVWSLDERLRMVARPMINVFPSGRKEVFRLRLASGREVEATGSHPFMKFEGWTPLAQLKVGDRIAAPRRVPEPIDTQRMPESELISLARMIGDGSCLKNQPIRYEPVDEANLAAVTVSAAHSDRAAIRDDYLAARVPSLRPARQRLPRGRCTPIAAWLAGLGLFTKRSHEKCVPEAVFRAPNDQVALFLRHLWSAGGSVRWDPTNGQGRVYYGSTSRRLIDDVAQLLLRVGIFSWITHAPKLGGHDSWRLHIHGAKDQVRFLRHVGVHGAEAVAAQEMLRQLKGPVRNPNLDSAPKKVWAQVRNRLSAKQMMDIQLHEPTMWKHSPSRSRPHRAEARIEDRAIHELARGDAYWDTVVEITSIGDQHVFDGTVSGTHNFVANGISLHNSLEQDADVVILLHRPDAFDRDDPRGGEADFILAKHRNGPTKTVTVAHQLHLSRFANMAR

[16] = tested on: Streptococcus; assay: Group A Streptococcus viability loss, dose response, counter-screen for streptokinase expression inhibitor project, luminescence, BacTiterGlo (AID 1915); format: functional, organism-based;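 also: potency for reduction of bacterial viability or growth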
[17] = target: Heat shock protein HSP 90-alpha (Homo sapiens, UniProt P07900); format: functional, organism-based

In the case of `O=C(c1ccc([N+](=O)[O-])s1)N1CCN(c2ccccn2)CC1`, the AC50 [1] is reported as 12.2 µM (active).
With `O=C(NCCCN1CCOCC1)c1cc2c3ccccc3nc-2c(-c2cccc(Br)c2)[nH]1` the CC50 [2] was 19.4 µM (active) and the IC50 [3] was > 20 µM (inactive).
For `Cc1cccc(NC(=S)Nc2ccc(Cl)c(Cl)c2)c1`, the IC50 [4] was > 66 µM (inactive), the EC50 [5] was 24.5 µM (active) and the IC50 [6] was > 66 µM (inactive).
With `Cc1cc(-c2ccccc2)n(-c2ccc(C(=O)N3CCN(c4ncccn4)CC3)cc2)n1` the IC50 [7] was 8.32 µM (active).
For `Clc1ccccc1-c1ccc(CN2CCN(c3ccccc3)CC2)o1`, the IC50 [8] was > 100 µM (inactive).
In the case of `Cc1ccc(C(C(=O)NC(C)(C)C)N(Cc2ccccc2)C(=O)c2snc(C(N)=O)c2N)o1` (stereo not drawn), the IC50 [3] is reported as > 20 µM (inactive).
With `Cc1cc2c(cc(C(=O)N3CCC(C(=O)NC4CCCC4)CC3)n2Cc2c(F)cccc2Cl)o1` the AC50 [9] was 49.4 µM (active), the AC50 [10] was 4.81 µM (active) and the AC50 [11] was 10 µM (active).
In the case of `COc1ccc(Cl)cc1N=C(N)Nc1nc(O)cc(CSc2ccc(C)cc2)n1`, the AC50 [9] is reported as > 70 µM (inactive), the AC50 [10] is reported as 1.82 µM (active) and the AC50 [11] is reported as 21.5 µM (active).
In the case of `Cn1c(CC(=O)Nc2ccccc2)cc2ccccc21`, the EC50 [12] is reported as > 350 µM (not active) and the EC50 [13] is reported as > 350 µM (not active).
With `O=C(C1=C[C@@H](C2CC2)C[C@@H](OCCCCO)O1)N1CCN(Cc2ccc3c(c2)OCO3)CC1` the EC50 [12] was > 350 µM (not active) and the EC50 [13] was > 350 µM (not active).
With `CCOc1ccc(-c2nnc(-c3cccs3)o2)cc1` the IC50 [8] was > 100 µM (inactive).
With `CCC(NCCc1ccccc1)=C1C(=O)N(C)C(=O)N(C)C1=O` the IC50 [7] was 13.8 µM (active).
For `CC(C)OC(=O)c1cccc(-c2ccc(C=O)o2)c1`, the IC50 [7] was 14.5 µM (active).
For `CC(C)=CCc1c(O)cc(O)c2c(=O)c(O[C@@H]3O[C@@H](C)[C@H](O)[C@@H](O)[C@H]3O)c(-c3ccc(O)cc3)oc12`, the IC50 [3] was > 20 µM (inactive).
In the case of `O=C(Nc1ccc(S(=O)(=O)NC2=NCCCCC2)cc1)c1ccc(C(F)(F)F)cc1`, the IC50 [7] is reported as 11.8 µM (active).
In the case of `CCN(Cc1ccncc1)C(=O)c1cc(COc2ccc(F)cc2Cl)on1`, the IC50 [7] is reported as 13.2 µM (active).
In the case of `COCCn1cc(C(=O)NCc2cccs2)c2c3ccccc3n(C)c2c1=O`, the IC50 [8] is reported as > 100 µM (inactive).
In the case of `COc1ccc(C(=O)C2CCCN(C(=O)C3CCOCC3)C2)cc1OC` (stereo not drawn), the EC50 [12] is reported as > 350 µM (not active) and the EC50 [13] is reported as > 350 µM (not active).
With `CC(C)C(OC(=O)C1=Cc2ccccc2OC1)C(=O)NC1CCCC1` (stereo not drawn) the IC50 [8] was > 100 µM (inactive).
In the case of `OCCN(CCO)c1ccc(C(c2ccccc2Cl)c2ccc(N(CCO)CCO)cc2Cl)c(Cl)c1`, the EC50 [14] is reported as 4.01 µM (active), the AC50 [15] is reported as 1.91 µM (active) and the EC50 [5] is reported as 4.84 µM (active). The EC50 [16] was 8.65 µM (active) and the IC50 [8] was > 100 µM (inactive).
With `O=C(C=Cc1cccc(O)c1)c1ccccc1O` the AC50 [17] was 2.81 µM (active).
In the case of `CNS(=O)(=O)c1ccc2c(c1)nc(S)n2C`, the IC50 [8] is reported as > 100 µM (inactive).
With `CC(CCc1ccccc1)NC(=O)c1ccc(Br)cc1` (stereo not drawn) the AC50 [17] was 2.6 µM (active).
For `CC1CCN(Cc2nnnn2CCCC(=O)NCCc2cnn(C)c2)CC1`, the EC50 [12] was > 350 µM (not active) and the EC50 [13] was > 350 µM (not active).
For `CCc1ccc(-c2nn(-c3cc(Cl)ccc3[N+](=O)[O-])c(=O)c3ccccc23)cc1`, the IC50 [8] was > 100 µM (inactive).
For `CC/C(NN1CCCCCC1)=C1/C(=O)NC(=O)N(c2ccc(C)cc2)C1=O`, the EC50 [12] was > 350 µM (not active) and the EC50 [13] was > 350 µM (not active).
With `O=C(Nc1cccc(C(=O)N2CCCCC2)c1)c1ccccc1Br` the IC50 [7] was 16.8 µM (active).

— ChEMBL document CHEMBL1201862, “PubChem BioAssay data set” (2004)
